In US5173504A, “Bacteriochlorophyll-a derivatives useful in photodynamic therapy” (Health Research, Inc., priority 1991, dated 1992):

What was measured:
[1] = Beems et al., Photochemistry and Photobiology (1987); cited from earlier work
[2] = cutaneous photosensitivity: response of the foot of the treated mice; format: in vivo; settings: FIG. 3
Procedure: One of the undesirable side effects of photodynamic therapy using certain compounds is cutaneous photosensitivity unrelated to the target biological substrate. Accordingly, the effect of the treatment on the photosensitivity of the foot of the treated mice was measured. The response of the foot was measured as erythema and/or edema (or loss of skin or further damage).

[3] = stability of bchla; format: physicochemical
Excerpt: Bchla is readily obtained by extraction from bacterial sources, and is available commercially from Porphyrin Products, Logan, UT.

[4] = tested on: SMT-F tumors; assay: tumor response to photodynamic treatment in mice transplanted with SMT-F tumors; format: in vivo, DBA2/HaD mice
Procedure: DBA2/HaD mice were transplanted with SMT-F tumors. When the subcutaneous tumors reached 4.5-5.5 mm in diameter, the mice, in groups of five, were injected intravenously with the bchla solution of Example 1 in doses of 5-30 mg/kg. At a time 1 hour-5 days later, the tumor, previously shaved and depiliated, plus a margin of 2-3 mm was exposed to radiation of a wavelength in the range 630-800 nm using a Spectraphysics argon dye laser with Exciton LDS751 dye, tunable over the 700-800 nm range or a diode laser--e.g., Spectra Diode emitting in the 750-850 nm range or a Xenon arc lamp filtered with an interference filter to pass 90% of the 700 nm light ±60 nm at dose rates of 75-150 mw/cm^2. When the Xenon system was used, mild hyperthermia resulted (42° C. at 160 mW/cm^2). It is not known whether this temperature rise acts synergistically with bchla as has been shown with HpD and its active fraction.
Tumor response is shown in the table of FIG. 1 for the seventh day after light treatment which indicates regression, and at a time point at least 30 days after light treatment, which would indicate cure, if there had been no regrowth.

[5] = light absorption of bchla; format: physicochemical
Excerpt: Bchla is essentially identical to the chlorophyll-a of higher plants except that ring B is in the dihydro form and the vinyl group in ring A is converted to an acetyl group. The wavelength absorption maximum of bchla is about 780 nm and the extinction coefficient in this region is quite high (E780= 75,000). This long wavelength absorption is advantageous because light penetrates tissues 2-3 times more effectively at a wavelength nearly 800 nm versus lower wavelengths, e.g., 630 nm.
Bacteriochlorophyll-a, obtained at >90% purity from Porphyrin Products (Logan, UT) was dissolved at a concentration of 5 mg/ml in Tween-80 (Sigma) by stirring for several hours or overnight. The resulting solution was mixed with 9 volumes of Hank's buffer solution with agitation until all of the detergent solution was dissolved. Any remaining particulate matter is removed by filtration and the concentration of the final solution is determined spectrophotometrically using a 1:100 dilution in distilled water (OD780= 87.3 for 1 mg/ml of concentrate). In general, if the initial solution of bchla is conducted carefully, the resulting formulation has a concentration of bchla of 0.5 mg/ml.

[6] = tested on: tumors approximately 1 cm in depth; assay: light penetration: necrotic depth in tumors; format: in vivo; settings: 20 mg/kg, irradiation after 1 hour, 270 J/cm^2 at 780 nm; histology the day following
Procedure: Comparison was made using bchla at 20 mg/kg with irradiation after 1 hour at 270 J/cm^2 at 780 nm, and DHE at 5 mg/kg after 1 hour at 270 J/cm^2 at 630 nm. Animals with tumors approximately 1 cm in depth were used in the comparison. Histological sections were obtained the day following treatment, fixed and stained.

[7] = uptake and clearance in liver (extraction, HPLC); format: in vivo, DBA/2 Ha Mice
Procedure: (§1) Uptake and clearance of bchla in tumor and liver were measured by extraction of the tumor or liver tissue with 1:1MeOH:CH2 Cl2, followed by HPLC analysis.

[8] = uptake and clearance in tumor (extraction, HPLC); format: in vivo, DBA/2 Ha Mice
Procedure: as §1

SMILES	water solubility compared to bacteriochlorophyll-a [1]	sensitivity of the tumor and the skin of the foot over time [2]	oxidation stability [3]	stability in vivo ([3]; in vivo)	loss of magnesium ion in dilute acid ([3]; presence of dilute acid)	tumor response ([4]; 5 mg/kg i.v., irradiated after 2 hours, 670-790 nm range)	tumor response ([4]; 10 mg/kg i.v., irradiated 24 hours after injection, 680-780 nm)	wavelength absorption maximum [5]	extinction coefficient (E780) ([5]; 780 nm)	OD780 ([5]; for 1 mg/ml of concentrate, Tween-80/Hank's buffer formulation, measured at 1:100 dilution in distilled water)	necrotic depth [6]	time of partial conversion to bacteriopheophytin in liver [7] [h]	composition of material in tumor ([8]; 24 hours after injection)	composition of material in tumor ([8]; 48 hours after injection)	time of partial conversion to bacteriopheophytin in tumor ([8]; tumor) [h]
CCC1c2cc3[nH]c4c(c3C)C(=O)C(C(=O)OC)c4c3nc(cc4[nH]c(cc(n2)C1C)c(C(C)=O)c4C)C(C)C3CCC(=O)O (stereo not shown) [bacteriochlorin-a]	enhanced water solubility														
CCC1C2=Cc3c(C)c4c5[n]3[Mg][n]3c(c(C)c(C(C)=O)c3=CC(=N2)C1C)=CC1=NC(=C5C(C(=O)OC)C4=O)C(CCC(=O)O)C1C (stereo not shown) [bacteriochloro-phyllin-a]	enhanced water solubility														
CCC1C2=Cc3c(C)c4c5[n]3[Mg][n]3c(c(C)c(C(C)=O)c3=CC(=N2)C1C)=CC1=NC(=C5C(C(=O)OC)C4=O)C(CCC(=O)OCC=C(C)CCCC(C)CCCC(C)CCCC(C)C)C1C (stereo not shown) [bchla, Bacteriochlorophyll-a]		the sensitivity of the tumor and the skin of the foot declined concomitantly	readily oxidized, especially in the presence of light	sufficiently stable in vivo to be an effective phototherapeutic agent	the magnesium ion is readily removed in the presence of dilute acid	good response	good response	about 780 nm	75,000	87.3	approximately 9 mm	2	demetallized but still contains phytyl	mainly material without phytyl and without Mg	≥ 24
